Where a name gives a salt, the structure may show the parent alone.

The experiment relates to endogenous target monocytes in human PBMC. Description: PBMC ex vivo monocyte depletion flow cytometry assay (Example 200). The experiment is classed as cell-based. The following applies: with anti-cotinine antibody (SEQ ID NO: 11/12), 18-24 hours, EC50 in molar, read-out: Ex Vivo Depletion Assay pEC50 (converted). Here is the method: A human PBMC (peripheral blood mononuclear cells) monocyte depletion flow cytometry assay was developed to screen compounds in a 384-well plate format. This assay incorporated endogenous natural killer cells to deplete endogenous target monocytes.
To screen compounds in the human PBMC monocyte depletion flow cytometry assay, 11-point dose-response curves were made from 1 mM stocks in neat DMSO by serially diluting an ARM compound of Formula (I) four-fold into a 384-well plate row-wise. These serially diluted compounds were then stamped into a flat bottom polypropylene 384-well plate (Greiner Bio-One) at 100 nL/well. Fifty microliters of 30 μg/mL anti-cotinine antibody having a heavy chain sequence of SEQ ID NO: 11 and a light chain sequence of SEQ ID NO: 12 (rabbit variable region with human IgG1 Fc domain containing a DE mutation (S239D/1332E)) that had been diluted in assay medium (RPMI 1640 (Gibco) containing 10% fetal bovine serum (Gibco), 1% Glutamax (Gibco) and 1% sodium pyruvate (Corning) was added to the wells of the plate. The plate was centrifuged for 1 min at 500 rpm (revolutions per minute) and then shaken for 5 min at room temperature. The plate was incubated for 15 minutes at 37° C./5% CO2.
Frozen PBMC cells (HemaCare BioResearch) were thawed and centrifuged at 1,200 rpm for 4 minutes. The cells were diluted to a cell density of 2×10^6 cells/mL in assay medium. Fifty microliters of the diluted cells were added to the wells of the plate. The plate was centrifuged for 1 min at 500 rpm and incubated for 18-24 hours at 37° C./5% CO2.
After 18-24 hours incubation, 2 μL of 6.25 μg human FC block (BD Pharmingen) that was diluted in assay medium was added to the wells of the plate. The plate was centrifuged for 1 minute at 500 rpm and then incubated at room temperature for 15 minutes. Five microliters of 750 nM Helix NP NIR (Biolegend) that had been diluted in assay medium was added to the wells of the plate. Nine microliters of antibody cocktail containing 1/5 diluted fluorescein isothiocyanate (FITC) labeled anti-CD45 antibody (Beckman Coulter), PC7 labeled anti-CD14 antibody (Beckman Coulter) and phyocoerythrin (PE) anti-CD4 antibody (Beckman Coulter) was then added to the wells of the plate. The plate was centrifuged for 1 min at 500 rpm and incubated for 30 minutes at 4-8° C. Samples from the plate were run on BD FACS Canto II flow cytometer and data was analyzed using FlowJo software.
ARMs compounds of Formula (I) of the invention were tested for the ability to deplete monocytes in the above assay in one or more experimental runs and the results are shown in Table 3 below. Potency of the compounds of the invention is reported as a pEC50 value. The pEC50 value is the negative log of the EC50 value, wherein the EC50 value is the half maximal effective concentration measured in molar (M). For compounds tested in more than one experimental run, the pEC50 value is reported as an average or as the individual values measured
(In general: A flow cytometer gives signals particle by particle.)
On to `CN1C(=O)C[C@H](C(=O)NCCOCC(=O)NCCOCCC(=O)NCCOCCC(=O)N[C@@H]2C[C@H](NC(C)(C)C)CC[C@@H]2N2CC[C@H](Nc3ncnc4ccc(C(F)(F)F)cc34)C2=O)[C@H]1c1cccnc1` [Example 106, (2S,3S)-N-(19-(((1R,2S,5R)-5-(tert-Butylamino)-2-((S)-2-oxo-3-((6-(trifluoromethyl)quinazolin-4-yl)amino)pyrrolidin-1-yl)cyclohexyl)amino)-5,12,19-trioxo-3,9, 16-trioxa-6, 13-diazanonadecyl)-1-methyl-5-oxo-2-(pyridin-3-yl)pyrrolidine-3-carboxamide], for which the EC50 was 0.794 nM.
As to `CC(C)N(C)[C@@H]1CC[C@H](N2CC[C@H](Nc3ncnc4ccc(C(F)(F)F)cc34)C2=O)[C@H](NC(=O)[C@H]2CC[C@H](NC(=O)CCO[C@H]3CC[C@@H](OCCNC(=O)[C@H]4CC(=O)N(C)[C@@H]4c4cccnc4)CC3)CC2)C1` [Example 114, (2S,3S)-N-(2-(((1S,4R)-4-(3-(((1R,4R)-4-(((1R,2S,5R)-5-(Isopropyl(methyl)amino)-2-((S)-2-oxo-3-((6-(trifluoromethyl)quinazolin-4-yl)amino)pyrrolidin-1-yl)cyclohexyl)carbamoyl)cyclohexyl)amino)-3-oxopropoxy)cyclohexyl)oxy)ethyl)-1-methyl-5-oxo-2-(pyridin-3-yl)pyrrolidine-3-carboxamide], the EC50 was 2.51 nM.
As for `CC(C)N(C)[C@@H]1CC[C@H](N2CC[C@H](Nc3ncnc4ccc(C(F)(F)F)cc34)C2=O)[C@H](NC(=O)[C@H]2C[C@H](NC(=O)CCO[C@H]3CC[C@@H](OCCNC(=O)[C@H]4CC(=O)N(C)[C@@H]4c4cccnc4)CC3)C2)C1` [Example 116, (2S,3S)-N-(2-(((1S,4R)-4-(3-(((1R,3R)-3-(((1R,2S,5R)-5-(Isopropyl(methyl)amino)-2-((S)-2-oxo-3-((6-(trifluoromethyl)quinazolin-4-yl)amino)pyrrolidin-1-yl)cyclohexyl)carbamoyl)cyclobutyl)amino)-3-oxopropoxy)cyclohexyl)oxy)ethyl)-1-methyl-5-oxo-2-(pyridin-3-yl)pyrrolidine-3-carboxamide], the EC50 is 0.0398 nM.
With `CC(C)N(C)[C@@H]1CC[C@H](N2CC[C@H](Nc3ncnc4ccc(C(F)(F)F)cc34)C2=O)[C@H](NC(=O)[C@H]2C[C@H](NC(=O)CCO[C@H]3CC[C@H](OCCNC(=O)[C@H]4CC(=O)N(C)[C@@H]4c4cccnc4)CC3)C2)C1` [Example 117] the figure was 3.98 nM; with `CC(C)N(C)[C@@H]1CC[C@H](N2CC[C@H](Nc3ncnc4ccc(C(F)(F)F)cc34)C2=O)[C@H](NC(=O)CCOCCOCCNC(=O)[C@@H]2CCCN2CCOCCNC(=O)[C@H]2CC(=O)N(C)[C@@H]2c2cccnc2)C1` [Example 118, (S)-N-(2-(2-(3-(((1R,2S,5R)-5-(Isopropyl(methyl)amino)-2-((S)-2-oxo-3-((6-(trifluoromethyl)quinazolin-4-yl)amino)pyrrolidin-1-yl)cyclohexyl)amino)-3-oxopropoxy)ethoxy)ethyl)-1-(2-(2-((2S,3S)-1-methyl-5-oxo-2-(pyridin-3-yl)pyrrolidine-3-carboxamido)ethoxy)ethyl)pyrrolidine-2-carboxamide], 15.8 nM; with `CN1C(=O)C[C@H](C(=O)NCCOCCOCCC(=O)N[C@H]2CC[C@@H](C(=O)N[C@@H]3C[C@H](NC(C)(C)C)CC[C@@H]3N3CC[C@H](Nc4ncnc5ccc(C(F)(F)F)cc45)C3=O)CC2)[C@H]1c1cccnc1` [Example 120, (2S,3S)-N-(2-(2-(3-(((1S,4s)-4-(((1R,2S,5R)-5-(tert-Butylamino)-2-((S)-2-oxo-3-((6-(trifluoromethyl)quinazolin-4-yl)amino)pyrrolidin-1-yl)cyclohexyl)carbamoyl)cyclohexyl)amino)-3-oxopropoxy)ethoxy)ethyl)-1-methyl-5-oxo-2-(pyridin-3-yl)pyrrolidine-3-carboxamide], 1.26 nM.
As for `CC(C)N(C)[C@@H]1CC[C@H](N2CC[C@H](Nc3ncnc4ccc(C(F)(F)F)cc34)C2=O)[C@H](NC(=O)c2cccc(NCCOCCOCCOCCOCCNC(=O)[C@H]3CC(=O)N(C)[C@@H]3c3cccnc3)n2)C1` [Example 123, N-((1R,2S,5R)-5-(Isopropyl(methyl)amino)-2-((S)-2-oxo-3-((6-(trifluoromethyl)quinazolin-4-yl)amino)pyrrolidin-1-yl)cyclohexyl)-6-((1-((2S,3S)-1-methyl-5-oxo-2-(pyridin-3-yl)pyrrolidin-3-yl)-1-oxo-5,8,11,14-tetraoxa-2-azahexadecan-16-yl)amino)picolinamide], the figure is 15.8 nM; as for `CC(C)N(C)[C@@H]1CC[C@H](N2CC[C@H](Nc3ncnc4ccc(C(F)(F)F)cc34)C2=O)[C@H](NC(=O)c2cccc(NCCOCCOCCOCCOCCOCCNC(=O)[C@H]3CC(=O)N(C)[C@@H]3c3cccnc3)n2)C1` [Example 124, N-((1R,2S,5R)-5-(Isopropyl(methyl)amino)-2-((S)-2-oxo-3-((6-(trifluoromethyl)quinazolin-4-yl)amino)pyrrolidin-1-yl)cyclohexyl)-6-((1-((2S,3S)-1-methyl-5-oxo-2-(pyridin-3-yl)pyrrolidin-3-yl)-1-oxo-5,8, 11, 14, 17-pentaoxa-2-azanonadecan-19-yl)amino)picolinamide], 100000 nM; as for `CC(C)N(C)[C@@H]1CC[C@H](N2CC[C@H](Nc3ncnc4ccc(C(F)(F)F)cc34)C2=O)[C@H](NC(=O)c2ccc(NCCOCCOCCOCCOCCNC(=O)[C@H]3CC(=O)N(C)[C@@H]3c3cccnc3)nn2)C1` [Example 125, N-((1R,2S,5R)-5-(Isopropyl(methyl)amino)-2-((S)-2-oxo-3-((6-(trifluoromethyl)quinazolin-4-yl)amino)pyrrolidin-1-yl)cyclohexyl)-6-((1-((2S,3S)-1-methyl-5-oxo-2-(pyridin-3-yl)pyrrolidin-3-yl)-1-oxo-5,8,11,14-tetraoxa-2-azahexadecan-16-yl)amino) pyridazine-3-carboxamide], 15.8 nM.
On to `CC(C)N(C)[C@@H]1CC[C@H](N2CC[C@H](Nc3ncnc4ccc(C(F)(F)F)cc34)C2=O)[C@H](NC(=O)c2ccnc(NCCOCCOCCOCCOCCNC(=O)[C@H]3CC(=O)N(C)[C@@H]3c3cccnc3)c2)C1` [Example 126, N-((1R,2S,5R)-5-(Isopropyl(methyl)amino)-2-((S)-2-oxo-3-((6-(trifluoromethyl)quinazolin-4-yl)amino)pyrrolidin-1-yl)cyclohexyl)-2-((1-((2S,3S)-1-methyl-5-oxo-2-(pyridin-3-yl)pyrrolidin-3-yl)-1-oxo-5,8,11,14-tetraoxa-2-azahexadecan-16-yl)amino)isonicotinamide, 3Trifluoroacetic acid salt], for which the EC50 was 2.51 nM.
For the compound `CC(C)N(C)[C@@H]1CC[C@H](N2CC[C@H](Nc3ncnc4ccc(C(F)(F)F)cc34)C2=O)[C@H](NC(=O)c2cc(NCCOCCOCCOCCOCCNC(=O)[C@H]3CC(=O)N(C)[C@@H]3c3cccnc3)ncn2)C1` [Example 127, N-((1R,2S,5R)-5-(Isopropyl(methyl)amino)-2-((S)-2-oxo-3-((6-(trifluoromethyl)quinazolin-4-yl)amino)pyrrolidin-1-yl)cyclohexyl)-6-((1-((2S,3S)-1-methyl-5-oxo-2-(pyridin-3-yl)pyrrolidin-3-yl)-1-oxo-5,8,11, 14-tetraoxa-2-azahexadecan-16-yl)amino) pyrimidine-4-carboxamide], the EC50 was 2 nM.

The values above are taken from patent publication US12521393B2, “Cytotoxicity targeting chimeras for CCR2-expressing cells” (GLAXOSMITHKLINE INTELLECTUAL PROPERTY DEVELOPMENT LIMITED, priority 2021, dated 2026).
